Several values for one entry are separate records, joined by “and”; a condition that tells them apart may be missing. Identical values can stand only once.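 Where inhibition never reached the appropriate level, the endpoint shown equals the highest concentration tested. Otherwise, values were interpolated linearly from a five-concentration, 48-hour dose response in 96-well plates. At the GI50, growth is halved. TGI is the concentration that stops growth completely.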
Key:
Test in all cases: NCI-60 cell line screen, 48 h
[1] = tested on: SK-MEL-5 melanoma
[2] = tested on: MDA-MB-435
[3] = tested on: MOLT-4 leukemia
[4] = tested on: HT29 colon
[5] = tested on: MDA-MB-231 breast
[6] = tested on: NCI-H522 lung
[7] = tested on: EKVX NSCLC
[8] = tested on: K-562 leukemia
[9] = tested on: IGROV1 ovarian
[10] = tested on: OVCAR-5 ovarian

Row | SMILES | GI50 [1] | TGI [1] | GI50 [2] | TGI [2] | GI50 [3] | TGI [3] | GI50 [4] [µM] | TGI [4] [µM] | GI50 [5] [µM] | TGI [5] [µM] | GI50 [6] [µM] | TGI [6] [µM] | GI50 [7] [µM] | TGI [7] [µM] | GI50 [8] | TGI [8] | GI50 [9] [µM] | TGI [9] [µM] | GI50 [10] [µM] | TGI [10] [µM]
1 | CCOC(=O)CC1C(COC(=O)NC)OC(n2cnc3c(NC(=O)Nc4ccccc4)ncnc32)C1O[Si](C)(C)C(C)(C)C (configuration not stated) | 5.7 µM | 18.6 µM | 3.26 µM | > 100 µM | 1.99 µM | 5.74 µM | 3.97 | 17.7 | 17.5 | > 100 | 9.58 | > 100 | 3.39 | > 100 | 3.09 µM | > 100 µM | 13.7 | > 100 | 12.8 | 39.7
2 | COc1nc(N)nc2c1ncn2C1OC(CO)C(O)C1O (configuration not stated) | 164 µM | > 5000 µM | > 5000 µM | > 5000 µM | 5.7 µM and 19.5 µM | 2260 µM | > 5000 | > 5000 | > 5000 | > 5000 | > 5000 | > 5000 | > 5000 | > 5000 | > 5000 µM | > 5000 µM | – | > 5000 | > 5000 | > 5000
3 | O=C1C=CC(=O)c2cc(Sc3ccccc3)c(=O)ccc21 | – | 31.5 µM | – | 71 µM | – | 16 µM | – | 41.6 | – | 35.4 | – | 5.96 | – | 33.2 | – | 8.75 µM | – | 35 | – | 36.3
4 | COc1ccc(-c2c3c(n(C4OC(COC(C)=O)C(OC(C)=O)C(OC(C)=O)C4OC(C)=O)c(=S)c2C#N)CC(C)(C)CC3=O)cc1 (configuration not stated) | 23.1 µM and 61.1 µM | 75.7 µM and > 100 µM | 22.5 µM and 71.7 µM | 65.6 µM and > 100 µM | – | 57.1 µM and > 100 µM | – | > 100 | – | > 100 | – | > 100 | – | 97.5 | 18.2 µM and 47.5 µM | 39.9 µM and > 100 µM | – | > 100 | – | > 100
5 | Cc1cc(CC(C)CC(C)(C)C)n(O)c(=O)c1 (configuration not stated) (tested in a mixture with another compound) | 0.292 µM | 1.01 µM | 0.559 µM | 24.9 µM | 0.246 µM | 0.714 µM | 3.91 | 17.5 | 0.45 | > 48.5 | 0.475 | 4.23 | 0.889 | 25.4 | 0.258 µM | 15.2 µM | 0.464 | 16.7 | 0.689 | > 58
6 | COc1cccc(C2c3cc4c(cc3OC(N3CCCC3)C2C)OCO4)c1O (configuration not stated) | – | 16.3 µM | – | 4.61 µM | – | 93 µM | – | 14.7 | – | 45.8 | – | 20 | – | > 84.9 | – | 57.8 µM | – | 99.1 | – | > 100
7 | O=C(O)C(Cl)(c1ccccc1)c1ccccc1 | – | > 100 µM | – | > 100 µM | – | > 100 µM | – | > 100 | – | > 100 | – | > 100 | – | > 100 | – | > 100 µM | – | > 100 | – | > 100
8 | CC(C)(C)CC(C)(C)NCc1cc(C(C)(C)C)cc(CNC(C)(C)CC(C)(C)C)c1O | 1.61 µM | 2.96 µM | 2.56 µM | 10.9 µM | 2.93 µM | 9.34 µM | 2.4 | 9.7 | 1.21 | 3.78 | 1.78 | 3.66 | 2.78 | 14.1 | 2.2 µM | 9.45 µM | 3.93 | 15.9 | 3.02 | 10
9 | Cc1cc(C)c(NC(=S)NC(=O)c2ccccc2)cc1C | – | > 100 µM | – | > 100 µM | – | > 100 µM | – | > 100 | – | > 100 | – | > 100 | – | > 100 | – | > 100 µM | – | > 100 | – | > 100
10 | COc1cccc(/C=C/C(=O)c2ccc(Cl)cc2Cl)c1 | 9.38 µM | 17.6 µM | 11.1 µM | 28.6 µM | 0.773 µM | > 50 µM | 15.1 | > 50 | 8.11 | 15.9 | 18 | > 50 | 13.5 | 25.8 | 3.22 µM | 26.9 µM | 15 | > 50 | 13.6 | 43.7
11 | OCC(O)c1nc2ccc3[nH]ncc3c2c2c1CCCC2 (configuration not stated) | 1.02 µM | 2.99 µM | 1.42 µM | 4.31 µM | 1.56 µM | > 50 µM | 1.27 | > 50 | 1.75 | > 50 | 1.5 | 9.87 | 1.3 | 4.67 | 1.91 µM | > 50 µM | 1.38 | > 50 | 1.53 | > 50
12 | COC(=O)Cc1ccc(Oc2cnc3cc(F)c(F)cc3n2)cc1 | 32 µM | > 100 µM | > 100 µM | > 100 µM | 12.7 µM | 32.9 µM | 58.1 | > 100 | > 100 | > 100 | > 100 | > 100 | 94.3 | > 100 | 31.1 µM | 94.8 µM | > 100 | > 100 | > 100 | > 100
